pEC50, pIC50: −log10 of the molar value. Entries after “also recorded” stand apart in the source; their conditions may differ.
Assays:
HCT116 cells = experiment: HCT-116 cell proliferation assay; type: cell-based; details: Homo sapiens, 72 hours, Cell Titer Glo
Method: HCT-116 Cell Proliferation Assay
(§1) For the HCT116 Proliferation Assay, 3000 cells per well were plated in Growth Media (DMEM, 10% FBS, 1% 1-glutamine, 1% penicillin/streptomycin) in 96 well plates. The following day, compounds were added to duplicate wells at concentrations of 10 uM and 3-fold dilutions down to 40 nM. The plates were returned to the incubator for 72 hours and then the assays were developed using Cell Titer Glo (Promega, Madison, Wis.) according to manufacturer's instructions.

PI3Kα = PI3Kα (Homo sapiens, UniProt P42336); experiment: Mass spectrometry of intact PI3Kα (Johns Hopkins), 3 hr incubation; type: binding; design: Johns Hopkins; details: 10× fold excess of compound, MALDI
Method: Mass Spectrometry for PI3K
Intact PI3Kα (Johns Hopkins) was incubated for 3 hr at a 10× fold excess of II-a-45 or II-a-49 to protein. Aliquots (3 μL) of the samples were diluted with 10 μL of 0.1% TFA prior to micro C4 ZipTipping directly onto the MALDI target using Sinapinic acid as the desorption matrix (10 mg/ml in 0.1% TFA:Acetonitrile 50:50).

PI3Kβ (p110β/p85α) = target: T1, PI3Kβ (p110β/p85α) (Homo sapiens, UniProt P42338); experiment: HTRF assay, potency against active PI3Kβ; type: biochemical; details: [ATP]=50 μM, [di-C8-PIP2]=10 μM, 30 min pre-incubation, read-out: PI3Kβ Inhibition
T1 construct: purchased BPS Bioscience (San Diego, Calif.) or Millipore (Billerica, Mass.)
Method: Homogeneous Time Resolved Fluorescence (HTRF) Assay Protocol for Potency Assessment Against the Active Forms of PI3Kα, PI3Kβ, and PI3Kγ
The mechanics of the assay platform are best described by the vendor (Millipore, Billerica, Mass.) on their website at the following URL: www.millipore.com/coa/tech1/74jt4z.
Briefly, Stop solution (Stop A, #33-007 and Stop B, #33-009; 3:1 ratio) and Detection Mix (from DMC, #33-015 with DMA, #33-011 and DMB, #33-013; 18:1:1 ratio) were prepared as recommended by the manufacturer about 2 hrs prior to use. […] Lipid kinase reactions were started with the addition of 5 μL of ATP solution, mixed for 15 sec on a rotary plate shaker and incubated for 30-60 minutes at 25° C. Next, reactions were stopped with a 5 μL addition of Stop solution immediately followed by a 5 μL volume of Detection Mix. […] At the conclusion of each assay, the HTRF ratio from fluorescence emission values for each well was calculated and % Inhibition determined from averaged controls wells (+/−PI3K enzyme). % Inhibition values for each compound were then plotted against inhibitor concentration to estimate IC50 from log [Inhibitor] vs Response, Variable Slope model in GraphPad Prism from GraphPad Software (San Diego, Calif.).

PI3Kγ (p120γ) = target: T2, PI3Kγ (p120γ) (Homo sapiens, UniProt P48736); experiment: HTRF assay, potency against active PI3Kγ; type: biochemical; details: [ATP]=50 μM, [di-C8-PIP2]=10 μM, 30 min pre-incubation, read-out: PI3Kγ Inhibition
T2 construct: purchased BPS Bioscience (San Diego, Calif.) or Millipore (Billerica, Mass.)
How it was run: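 End-point competition HTRF: enzyme (p110β/p85α 0.75 nM; p120γ 2-2.5 nM) with 10 μM di-C8-PIP2 pre-incubated 30 min at 25° C with compound, then 50 μM ATP added for 30-60 min at 25° C. Stopped, detected after 1 and 18 h; IC50 from variable-slope fit.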

PI3K = PI3K HCT116 cellular assay (Western blot); type: cell-based; details: Homo sapiens, HCT-116, HCT116 colon cancer cells, 1 hour incubation, read-out: PI3K Inhibition
Method: PI3K HCT116 Cellular Assay
Selected compounds were assayed in HCT116 colon cancer cells. […] Cells were then washed with PBS, lysed and the protein lysates were then recovered and analyzed by Western blot.

PI3Kα (p110α/p85α) = target: T3, PI3Kα (p110α/p85α) (Homo sapiens, UniProt P42336); experiment: HTRF assay, potency against active PI3Kα; type: biochemical; details: HTRF; [ATP]=50 μM, [di-C8-PIP2]=10 μM; 30 min pre-incubation; read-out: PI3Kα Inhibition
T3 construct: purchased BPS Bioscience (San Diego, Calif.) or Millipore (Billerica, Mass.)
How it was run: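 IC50 came from a variable-slope fit of % inhibition, calculated from the HTRF emission ratio relative to wells with and without enzyme. Reactions with the active enzyme complex ran 30-60 minutes at 25 °C after ATP addition before stop and detection reagents.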

SK-OV-3 cells = experiment: SK-OV-3 cell proliferation assay; type: cell-based; details: Homo sapiens; SK-OV-3 proliferation, 72 hours, Cell Titer Glo
Method: SK-OV-3 Cell Proliferation Assay
as §1, with “SK-OV-3 proliferation” for “HCT116 Proliferation”, “5000” for “3000”

Phospho-Akt(Ser473) [1] = experiment: Dose response in SKOV3 cells as determined by Western blot; type: cell-based; details: Homo sapiens, SK-OV-3, 1 hr, Phospho-Akt normalized to total Akt, read-out: Immunoblot
Method: Dose Response in SKOV3 Cells as Determined by Western Blot
SKOV3 cells were plated in SKOV3 Growth Media (DMEM supplemented with 10% FBS and pen/strep) at a density of 4×10^5 cells per well of 12 well plates. Twenty four hours later the media was removed and replaced with 1 ml media containing test compound and 0.1% DMSO and cells were returned to the incubator for 1 hr. At the end of the hour, the media was removed and the cells were washed with PBS, then lysed and scraped into 30 ul of Cell Extraction Buffer (Biosource, Camarillo, Calif.) plus Complete Protease Inhibitor and PhosStop Phosphatase Inhibitor (Roche, Indianapolis, Ind.).
Cell debris was spun down at 13,000×g for 1 minute and the supernatant was taken as the cell lysate. Protein concentration of the lysate was determined by BCA Assay (Pierce Biotechnology, Rockford, Ill.) and 50 ug of protein was loaded per well onto a NuPAGE Novex 4-12% Bis-Tris gel (Invitrogen, Carlsbad, Calif.) then transferred to Immobilon PVDF-FL (Millipore, Billerica, Mass.).
The blot was blocked in Odyssey Blocking Buffer (Li-Cor Biosciences, Lincoln, Nebr.) for 1 hr then incubated overnight at 4° C. with mouse anti-Akt (#2920) and rabbit anti-Phospho-Akt(Ser473) (#9271)(Cell Signaling Technology, Boston, Mass.) antibodies, both diluted 1:1000 in PBS/Odyssey Buffer (1:1)+0.1% Tween-20. The blots were washed 3 times 5 minutes in PBS+0.2% Tween-20 then incubated for 1 hr at room temperature with fluorescently labeled secondary antibodies (Li-Cor) diluted 1:10000 in PBS/Odyssey Buffer (1:1)+0.1% Tween-20.
The blots were washed 2 times for 5 minutes in PBS+0.2% Tween-20, once in distilled water, then scanned on an Odyssey machine (Li-Cor). Band intensity was determined using the Odyssey software and Phopho-Akt signal was normalized to total Akt within samples, then expressed as a percentage of the untreated Phospho-Akt signal.

Phospho-Akt(Ser473) [2] = experiment: Dose response in SKOV3 cells as determined by in-cell Western; type: cell-based; details: Homo sapiens, SK-OV-3; SKOV3 cells, 1 hr; read-out: pAKT Inhibition in cell Western
How it was run: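 SKOV3 cells treated with compound for 1 hr, then formaldehyde-fixed, permeabilised and stained overnight for phospho-Akt(Ser473) with anti-tubulin as a reference. Infrared secondary antibodies read at 680 and 800 nm channels by in-cell Western imaging.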

SKOV3 cells = experiment: GI50 determinations in SKOV3 cells; type: cell-based; details: Homo sapiens, SK-OV-3; SKOV3 cells, 96 hours, Cell Titer Glo
Method: GI50 Determinations in SKOV3 Cells
A standard curve ranging from 10,000 to 50,000 cells was set up in a separate plate and allowed to adhere to the plate for 4-6 hours, at which time the plate was developed using Cell Titer-Glow (Promega, Madison, Wis.) according to manufacturer's instructions.
The next morning, 3-fold compound dilutions ranging from 10,000 nM to 40 nM were prepared in Proliferation Media containing 1% DMSO. 20 ul of each dilution was added to the SKOV3 cells plated the previous day resulting in a dose response curve from 1000 nM to 4 nM. The cells were incubated for 96 hours and then developed with Cell Titer Glo.
The cell numbers at the end of the assay were determined using the standard curve generated at the start of the assay. Growth inhibition was calculated using the following formulas and GI50s were determined by plotting the % growth inhibition vs. Log compound concentration in GraphPad.
%growth=100×(T−T0)/(C−T0)
T=Cell Number at end of assay T0=Cell Number at start of assay (5000) C=Number of cells in DMSO controls at end of assay
%growth inhibition=100−%growth

T1 sequence (P42338 whole entry): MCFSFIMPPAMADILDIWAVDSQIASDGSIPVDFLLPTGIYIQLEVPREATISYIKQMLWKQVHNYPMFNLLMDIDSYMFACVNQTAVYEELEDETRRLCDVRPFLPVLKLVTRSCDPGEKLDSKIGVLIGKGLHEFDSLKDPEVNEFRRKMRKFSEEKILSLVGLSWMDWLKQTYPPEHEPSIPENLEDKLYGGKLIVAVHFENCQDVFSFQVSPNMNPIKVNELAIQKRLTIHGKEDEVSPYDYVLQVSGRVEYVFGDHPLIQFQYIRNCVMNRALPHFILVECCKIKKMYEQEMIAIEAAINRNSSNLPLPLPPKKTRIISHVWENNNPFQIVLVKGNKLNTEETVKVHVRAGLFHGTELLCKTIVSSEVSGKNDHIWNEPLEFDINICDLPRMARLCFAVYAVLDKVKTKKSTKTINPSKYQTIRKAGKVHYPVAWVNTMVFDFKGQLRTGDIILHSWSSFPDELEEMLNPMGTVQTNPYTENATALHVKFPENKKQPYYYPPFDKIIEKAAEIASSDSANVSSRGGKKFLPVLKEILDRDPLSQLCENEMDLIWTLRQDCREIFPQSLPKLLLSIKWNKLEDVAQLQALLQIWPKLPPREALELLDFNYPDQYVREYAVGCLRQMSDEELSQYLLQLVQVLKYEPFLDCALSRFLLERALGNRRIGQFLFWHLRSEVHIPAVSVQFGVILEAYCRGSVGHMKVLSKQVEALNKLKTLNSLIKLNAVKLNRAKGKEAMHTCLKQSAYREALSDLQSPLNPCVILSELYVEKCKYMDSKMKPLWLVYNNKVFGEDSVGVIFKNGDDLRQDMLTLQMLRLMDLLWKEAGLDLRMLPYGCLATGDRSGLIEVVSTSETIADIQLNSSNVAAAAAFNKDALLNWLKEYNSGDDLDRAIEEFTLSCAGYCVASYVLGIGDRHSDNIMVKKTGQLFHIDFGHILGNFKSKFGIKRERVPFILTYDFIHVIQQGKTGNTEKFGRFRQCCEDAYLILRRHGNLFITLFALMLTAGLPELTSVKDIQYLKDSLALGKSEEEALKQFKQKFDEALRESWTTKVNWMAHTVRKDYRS
T1 sequence (P27986 whole entry partner): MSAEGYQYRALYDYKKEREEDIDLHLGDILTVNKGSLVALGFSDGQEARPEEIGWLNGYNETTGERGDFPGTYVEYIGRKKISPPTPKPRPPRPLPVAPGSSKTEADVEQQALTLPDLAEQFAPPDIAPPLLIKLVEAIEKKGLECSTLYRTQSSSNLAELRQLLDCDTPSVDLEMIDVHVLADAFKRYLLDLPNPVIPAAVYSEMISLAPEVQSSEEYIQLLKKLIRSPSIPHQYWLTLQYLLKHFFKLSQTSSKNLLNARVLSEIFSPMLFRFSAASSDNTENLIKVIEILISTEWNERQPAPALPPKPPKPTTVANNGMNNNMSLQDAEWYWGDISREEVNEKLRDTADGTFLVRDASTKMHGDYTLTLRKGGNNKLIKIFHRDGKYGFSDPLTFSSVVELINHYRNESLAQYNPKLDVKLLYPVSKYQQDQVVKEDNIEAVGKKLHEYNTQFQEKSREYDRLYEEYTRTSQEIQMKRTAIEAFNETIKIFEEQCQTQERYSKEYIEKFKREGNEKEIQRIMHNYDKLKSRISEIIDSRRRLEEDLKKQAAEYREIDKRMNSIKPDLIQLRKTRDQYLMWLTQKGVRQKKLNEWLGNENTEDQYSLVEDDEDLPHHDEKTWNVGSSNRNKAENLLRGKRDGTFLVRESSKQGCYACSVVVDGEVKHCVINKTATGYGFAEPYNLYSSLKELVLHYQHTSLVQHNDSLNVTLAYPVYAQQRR
T2 sequence (P48736 whole entry): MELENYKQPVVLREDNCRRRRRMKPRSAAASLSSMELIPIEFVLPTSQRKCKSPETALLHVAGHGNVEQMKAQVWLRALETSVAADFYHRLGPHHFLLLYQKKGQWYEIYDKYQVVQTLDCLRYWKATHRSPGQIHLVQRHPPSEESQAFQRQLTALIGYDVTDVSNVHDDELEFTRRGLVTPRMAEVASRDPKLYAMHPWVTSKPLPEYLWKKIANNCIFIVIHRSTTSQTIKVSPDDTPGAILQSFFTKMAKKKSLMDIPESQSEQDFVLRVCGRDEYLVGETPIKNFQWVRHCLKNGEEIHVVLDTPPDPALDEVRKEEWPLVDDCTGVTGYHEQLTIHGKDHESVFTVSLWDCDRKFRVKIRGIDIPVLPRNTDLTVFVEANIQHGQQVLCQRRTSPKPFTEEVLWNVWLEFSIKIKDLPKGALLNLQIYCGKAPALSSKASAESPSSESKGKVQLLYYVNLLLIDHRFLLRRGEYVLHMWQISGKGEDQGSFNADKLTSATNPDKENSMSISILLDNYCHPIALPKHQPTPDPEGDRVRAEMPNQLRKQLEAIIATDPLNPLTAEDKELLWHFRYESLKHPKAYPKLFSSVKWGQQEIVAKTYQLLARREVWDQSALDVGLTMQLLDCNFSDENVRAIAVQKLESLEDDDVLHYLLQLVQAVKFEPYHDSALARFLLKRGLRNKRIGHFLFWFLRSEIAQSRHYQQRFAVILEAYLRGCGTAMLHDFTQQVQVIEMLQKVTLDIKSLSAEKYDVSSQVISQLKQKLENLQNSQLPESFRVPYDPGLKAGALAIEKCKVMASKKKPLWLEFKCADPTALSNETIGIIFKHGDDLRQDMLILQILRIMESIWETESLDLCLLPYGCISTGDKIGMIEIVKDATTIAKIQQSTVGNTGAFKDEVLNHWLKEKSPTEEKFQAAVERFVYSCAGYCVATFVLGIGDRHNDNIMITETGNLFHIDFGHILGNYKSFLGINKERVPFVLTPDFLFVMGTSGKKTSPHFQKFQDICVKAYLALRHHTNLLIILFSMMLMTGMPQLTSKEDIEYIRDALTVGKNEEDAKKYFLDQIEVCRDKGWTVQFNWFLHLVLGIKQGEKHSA
PI3Kα, sequence (P42336 whole entry): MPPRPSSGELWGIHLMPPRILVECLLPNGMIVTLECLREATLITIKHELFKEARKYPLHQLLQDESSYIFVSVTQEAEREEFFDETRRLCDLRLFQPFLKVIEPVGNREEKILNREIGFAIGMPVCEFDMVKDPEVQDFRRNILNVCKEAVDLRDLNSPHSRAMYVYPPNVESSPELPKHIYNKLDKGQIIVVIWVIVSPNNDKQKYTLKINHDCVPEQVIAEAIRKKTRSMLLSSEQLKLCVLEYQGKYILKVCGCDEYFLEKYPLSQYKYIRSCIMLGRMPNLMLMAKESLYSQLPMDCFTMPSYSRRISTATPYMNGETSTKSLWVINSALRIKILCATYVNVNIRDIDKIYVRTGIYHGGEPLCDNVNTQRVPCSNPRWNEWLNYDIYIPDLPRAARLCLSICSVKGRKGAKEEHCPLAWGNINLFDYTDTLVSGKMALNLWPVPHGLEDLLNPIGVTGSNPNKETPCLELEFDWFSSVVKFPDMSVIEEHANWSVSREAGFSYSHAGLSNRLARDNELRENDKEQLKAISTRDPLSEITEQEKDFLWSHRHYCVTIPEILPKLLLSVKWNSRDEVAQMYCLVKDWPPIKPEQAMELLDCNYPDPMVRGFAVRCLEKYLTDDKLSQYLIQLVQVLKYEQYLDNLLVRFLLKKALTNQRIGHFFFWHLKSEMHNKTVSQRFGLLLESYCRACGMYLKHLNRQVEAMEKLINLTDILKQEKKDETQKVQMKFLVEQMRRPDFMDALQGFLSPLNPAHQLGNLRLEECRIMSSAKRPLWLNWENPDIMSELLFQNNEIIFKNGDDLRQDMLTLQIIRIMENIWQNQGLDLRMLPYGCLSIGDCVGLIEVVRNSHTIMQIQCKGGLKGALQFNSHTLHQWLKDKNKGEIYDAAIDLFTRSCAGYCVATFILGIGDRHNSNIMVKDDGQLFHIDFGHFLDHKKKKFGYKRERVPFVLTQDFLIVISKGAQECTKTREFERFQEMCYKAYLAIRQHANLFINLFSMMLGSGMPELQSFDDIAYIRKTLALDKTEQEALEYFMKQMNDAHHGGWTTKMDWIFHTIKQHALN
PI3Kα, sequence (P27986 322-600 partner limits assumed): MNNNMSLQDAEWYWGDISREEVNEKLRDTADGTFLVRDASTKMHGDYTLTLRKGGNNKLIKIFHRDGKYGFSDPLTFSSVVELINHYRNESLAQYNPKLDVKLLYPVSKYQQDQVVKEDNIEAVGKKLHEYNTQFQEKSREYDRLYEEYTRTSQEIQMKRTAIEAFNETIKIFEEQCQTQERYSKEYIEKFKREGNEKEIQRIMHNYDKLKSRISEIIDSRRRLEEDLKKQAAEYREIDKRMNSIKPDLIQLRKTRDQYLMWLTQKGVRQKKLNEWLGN
T3 sequence (P42336 whole entry): as the sequence (P42336 whole entry) above
T3 sequence (P27986 whole entry partner): as the sequence (P27986 whole entry partner) above

SMILES	pEC50 (HCT116 cells)	covalent modification of PI3Kα (PI3Kα)	pIC50 (PI3Kβ (p110β/p85α))	pIC50 (PI3Kγ (p120γ))	pEC50 (PI3K)	pIC50 (PI3Kα (p110α/p85α))	pEC50 (SK-OV-3 cells)	positive mass shift of PI3Kα (PI3Kα)	pEC50 (Phospho-Akt(Ser473) [1])	pEC50 (Phospho-Akt(Ser473) [2])	GI50 (SKOV3 cells)
C=C(C)C(=O)CCC(=O)N1CCN(Cc2cc3nc(-c4cccc5[nH]ncc45)nc(N4CCOCC4)c3s2)CC1 [II-a-43, 1-(4-((2-(1H-indazol-4-yl)-4-morpholinothieno[3,2-d]pyrimidin-6-yl)methyl)piperazin-1-yl)-5-methylhex-5-ene-1,4-dione]	6.00 to 7.00	completely modify	< 6.00	< 6.00	> 7.70	7.00 to 8.00	6.00 to 7.00	–	–	–	–
C=C(C)C(=O)CCC(=O)N1CCN(Cc2cc3nc(-c4cccc(O)c4)nc(N4CCOCC4)c3s2)CC1 [II-a-49, 1-(4-((2-(3-hydroxyphenyl)-4-morpholinothieno[3,2-d]pyrimidin-6-yl)methyl)piperazin-1-yl)-5-methylhex-5-ene-1,4-dione]	6.00 to 7.00	complete modification; also recorded: covalent modification	–	< 6.00	> 7.70	7.00 to 8.00	6.00 to 7.00	616 Da	–	–	–
C/C=C/C(=O)CCC(=O)N1CCN(Cc2cc3nc(-c4cccc(O)c4)nc(N4CCOCC4)c3s2)CC1 [II-a-50, (E)-1-(4-((2-(3-hydroxyphenyl)-4-morpholinothieno[3,2-d]pyrimidin-6-yl)methyl)piperazin-1-yl)hept-5-ene-1,4-dione]	6.00 to 7.00	completely modify	–	< 6.00	> 7.70	> 8.00	6.00 to 7.00	–	–	–	–
CC/C=C/C(=O)CCC(=O)N1CCN(Cc2cc3nc(-c4cccc5[nH]ncc45)nc(N4CCOCC4)c3s2)CC1 [II-a-53, (E)-1-(4-((2-(1H-indazol-4-yl)-4-morpholinothieno[3,2-d]pyrimidin-6-yl)methyl)piperazin-1-yl)oct-5-ene-1,4-dione]	6.00 to 7.00	completely modify	–	< 6.00	7.00 to 7.70	> 8.00	6.00 to 7.00	–	–	–	–
O=C(/C=C/C1CC1)CCC(=O)N1CCN(Cc2cc3nc(-c4cccc5[nH]ncc45)nc(N4CCOCC4)c3s2)CC1 [II-a-55, (E)-1-(4-((2-(1H-indazol-4-yl)-4-morpholinothieno[3,2-d]pyrimidin-6-yl)methyl)piperazin-1-yl)-6-cyclopropylhex-5-ene-1,4-dione]	6.00 to 7.00	completely modify	< 6.00	< 6.00	7.00 to 7.70	7.00 to 8.00	5.00 to 6.00	–	–	–	–
C/C=C/C(=O)CCC(=O)N1CCN(Cc2cc3nc(-c4cnc(N)nc4)nc(N4CCOCC4)c3s2)CC1 [II-a-112, (E)-1-(4-((2-(2-aminopyrimidin-5-yl)-4-morpholinothieno[3,2-d]pyrimidin-6-yl)methyl)piperazin-1-yl)hept-5-ene-1,4-dione]	–	–	6.00 to 7.00	–	–	7.00 to 8.00	–	–	7.00 to 8.00	≥ 8.00	–
O=C(/C=C/c1ccccc1)CCC(=O)N1CCN(Cc2cc3nc(-c4cccc5[nH]ncc45)nc(N4CCOCC4)c3s2)CC1 [II-a-116, (E)-1-(4-((2-(1H-indazol-4-yl)-4-morpholinothieno[3,2-d]pyrimidin-6-yl)methyl)piperazin-1-yl)-6-phenylhex-5-ene-1,4-dione]	–	–	< 6.00	–	–	7.00 to 8.00	–	–	7.00 to 8.00	7.00 to 8.00	–
CC(C)=CC(=O)CCC(=O)N1CCN(C(=O)c2cc3nc(-c4cccc5[nH]ncc45)nc(N4CCOCC4)c3s2)CC1 [II-a-160, 1-(4-(2-(1H-indazol-4-yl)-4-morpholinothieno[3,2-d]pyrimidine-6-carbonyl)piperazin-1-yl)-6-methylhept-5-ene-1,4-dione]	–	–	< 6.00	–	–	6.00 to 7.00	–	–	–	–	10 to 100 nM

From patent publication US20110230476A1, “PI3 KINASE INHIBITORS AND USES THEREOF” (AVILA THERAPEUTICS, INC., priority 2009, published 2011)
